Results from ChEMBL document CHEMBL1131366, “Development of new chromanol antagonists of leukotriene D4” (Bioorg Med Chem Lett, 1998).

What was measured:
Cavia porcellus [1] = assay: Compound was tested for antigen induced airway obstruction in guinea pig at 1.0 hr upon peroral administration; assay type: functional; conditions: po
U-937 = assay: Compound was evaluated for influx of calcium mobilization in human U937 cells; assay type: functional, cell-based
Cavia porcellus [2] = assay: Compound was tested for antigen induced airway obstruction in guinea pig at 2.0 hr upon peroral administration; assay type: functional; conditions: po

IC50 (U-937) [nM] | Compound | ED50 (Cavia porcellus [1]) [mg/kg] | ED50 (Cavia porcellus [2]) [mg/kg]
1 | O=C(Nc1cccc2c(=O)cc(-c3nnn[nH]3)oc12)c1ccc(OCCCCc2ccccc2)cc1 | 1.5 | 
310 | O=C(O)c1cccc(C[C@@H]2COc3ccc(OCc4nc5cc(F)ccc5s4)cc3[C@@H]2O)c1 |  | 10.2
8 | C[C@H]1Oc2ccc(OCc3nc4cc(F)ccc4s3)cc2[C@H](O)[C@@H]1Cc1cccc(NS(=O)(=O)C(F)(F)F)c1 (stereo in doubt; (+)-26) | 0.5 | 
 | COc1cc(C(=O)NS(=O)(=O)c2ccccc2C)ccc1Cc1cn(C)c2ccc(NC(=O)OC3CCCC3)cc12 [ZAFIRLUKAST] |  | 0.9
